According to patent US20190321426A1, “COMBINATION THERAPIES WITH CANNABIS PLANT EXTRACT” (TIKUN OLAM LTD, priority 2016, published 2019):

Experiment: Cutaneous wound (skin lesion) at the site of repeated s.c. Copaxone injection in EAE mice
Format: in vivo
Settings: s.c. injection on the mice back; 7 mice/group
Description: The treatments were given daily, five times a week and usually continued for about 60 days. GA were given s.c (at an injection dose of 1 mg/mouse), and cannabis extracts were administrated i.p. (intraperitoneal).
In mice treated with the Copaxone only (2 out of 7 mice), a skin lesion developed on the mice back at the site of repeated Copaxone injections.

glatiramer acetate [Copaxone]
skin lesion at the site of repeated Copaxone injections: 2 out of 7
